Read-outs that look alike come from different tables or passages of the source.
Assay: log P determination by HPLC on reversed-phase columns (C 18), acidic range pH 2.7
Type: physicochemical
Conditions: for logP: HPLC; for chromatographic logP: reversed-phase HPLC column (C 18)
[1] = pH 2.7, only value, or main isomer
[2] = pH 2.7, second-listed (minor) isomer of the isomer mixture
[3] = pH 2.7, pH 2.7, preparation example, only value or main isomer, read-out: log P (pH2.7)
[4] = pH 2.7, HPLC, pH 2.7, only value, or main isomer, read-out: logP
[5] = pH 2.7, HPLC, pH 2.7, second-listed (minor) isomer of the isomer mixture, read-out: logP
[6] = pH 2.7, pH 2.7, preparation example, minor isomer, read-out: log P (pH2.7)

SMILES	logP [1]	logP [2]	further results
O=C(Cc1cc(Cl)ccc1Cl)N1CCC(c2nc(C=NOCc3c(F)cccc3F)cs2)CC1 (mixture of isomers) [I-38]	4.36	4.60	
CC(=O)c1csc(C2CCN(C(=O)Cn3nc(C(F)(F)F)cc3C)CC2)n1 [IV-1, 1-[4-(4-Acetyl-1,3-thiazol-2-yl)piperidin-1-yl]-2-[5-methyl-3-(trifluoromethyl)-1H-pyrazol-1-yl]ethanone]			chromatographic logP [3]: 2.25
O=C(Cn1nc(C(F)F)cc1C(F)F)N1CCC(c2nc(C=NOC3CCCCC3)cs2)CC1 (mixture of isomers) [I-34]	4.12	4.33	
CC(=NOC1CCCCC1)c1csc(C2CCN(C(=O)Cn3nc(C(F)F)cc3C(F)F)CC2)n1 (mixture of isomers) [I-45]	4.69	4.88	
CC(=NN1CCCCC1)c1csc(C2CCN(C(=O)Cn3nc(C(F)(F)F)cc3C)CC2)n1 [I-17, 2-[5-Methyl-3-(trifluoromethyl)-1H-pyrazol-1-yl]-1-(4-{4-[N-(piperidin-1-yl)ethanimidoyl]-1,3-thiazol-2-yl}piperidin-1-yl)ethanone]			chromatographic logP [4]: 3.69; chromatographic logP [3]: 3.69
CC(C)(C)c1cc(C(F)(F)F)n(CC(=O)N2CCC(c3nc(C=NOCc4ccc(Cl)cc4)cs3)CC2)n1 [I-28]	4.99		
Cc1cc(C(F)(F)F)nn1CC(=O)N1CCC(c2nc(C=NN3CCCCC3)cs2)CC1 [I-16]	3.00		
Cc1cc(C(F)(F)F)nn1CC(=O)N1CCC(c2nc(C=NN(C)c3ccccc3)cs2)CC1 [I-15]	3.83		
CC(C)(C)c1cc(C(F)(F)C(F)(F)F)nn1CC(=O)N1CCC(c2nc(C=NOCc3ccc(Cl)cc3)cs2)CC1 [I-31]	5.31		
CC(=NOC(C)c1ccccc1)c1csc(C2CCN(C(=O)Cn3nc(C(F)(F)F)cc3C)CC2)n1 (centres unmarked) [I-5, 2-[5-Methyl-3-(trifluoromethyl)-1H-pyrazol-1-yl]-1-(4-{4-[N-(1-phenylethoxy)ethanimidoyl]-1,3-thiazol-2-yl}piperidin-1-yl)ethanone]			chromatographic logP [4]: 4.38; chromatographic logP [5]: 4.54; chromatographic logP [6]: 4.54; chromatographic logP [3]: 4.38
Cc1cc(C(F)(F)F)nn1CC(=O)N1CCC(c2nc(C=NOCc3ccc(Cl)cc3)cs2)CC1 (mixture of isomers) [I-7]	4.04	4.23	
CC(C)(C)c1cc(C(F)(F)C(F)(F)F)n(CC(=O)N2CCC(c3nc(C=NOCc4ccc(Cl)cc4)cs3)CC2)n1 [I-30]	5.31		
Cc1cc(C(F)(F)F)nn1CC(=O)N1CCC(c2nc(C=NOCc3ccccc3)cs2)CC1 (mixture of isomers) [I-2]	3.63	3.80	
CC(=NOC1CCCCC1)c1csc(C2CCN(C(=O)Cn3nc(C(F)(F)F)cc3C)CC2)n1 (mixture of isomers) [I-44]	4.02	4.12	
Cc1cc(C(F)(F)F)nn1CC(=O)N1CCC(c2nc(C=NN(C)Cc3ccccn3)cs2)CC1 [I-11]	1.82		
O=C(Cn1nc(C(F)F)cc1C(F)F)N1CCC(c2nc(C=NOCc3ccc(Cl)cc3)cs2)CC1 [I-27]	3.90		
CCCCCCON=C(C)c1csc(C2CCN(C(=O)Cn3nc(C(F)(F)F)cc3C)CC2)n1 [I-19]	5.13		
Cc1cc(C(F)(F)F)nn1CC(=O)N1CCC(c2nc(C=NN(c3ccccc3)c3ccccc3)cs2)CC1 [I-13]	4.77		
CC(=NOCc1c(F)cccc1F)c1csc(C2CCN(C(=O)Cn3nc(C(F)F)cc3C(F)F)CC2)n1 (mixture of isomers) [I-42]	4.00	4.19	
CC(=NOc1ccccc1)c1csc(C2CCN(C(=O)Cn3nc(C(F)(F)F)cc3C)CC2)n1 (mixture of isomers) [I-4]	4.23	4.46	
Cc1cc(C(F)(F)F)nn1CC(=O)N1CCC(c2nc(C=NOc3ccccc3)cs2)CC1 [I-1, 2-(1-{[5-Methyl-3-(trifluoromethyl)-1H-pyrazol-1-yl]acetyl}piperidin-4-yl)-1,3-thiazole-4-carbaldehyde O-phenyl oxime]			chromatographic logP [4]: 3.74; chromatographic logP [5]: 3.94; chromatographic logP [6]: 3.94; chromatographic logP [3]: 3.74
CC(=NOCCCc1ccccc1)c1csc(C2CCN(C(=O)Cn3nc(C(F)(F)F)cc3C)CC2)n1 [I-21]	4.66		
Cc1cc(C(F)(F)F)nn1CC(=O)N1CCC(c2nc(C=NN(C)c3ccc(C(F)(F)F)cn3)cs2)CC1 [I-14, 2-(1-{[5-Methyl-3-(trifluoromethyl)-1H-pyrazol-1-yl]acetyl}piperidin-4-yl)-1,3-thiazole-4-carbaldehyde methyl[5-(trifluoromethyl)pyridin-2-yl]hydrazone]			chromatographic logP [4]: 4.23; chromatographic logP [3]: 4.23

SMILES	logP [1]	logP [2]	further results
CCc1cc(CC)n(CC(=O)N2CCC(c3nc(C=NOCc4ccc(Cl)cc4)cs3)CC2)n1 [I-25]	3.70		
CC(=NOCc1c(F)cccc1F)c1csc(C2CCN(C(=O)Cc3cc(Cl)ccc3Cl)CC2)n1 (mixture of isomers) [I-43]	4.91	5.16	
CCc1cc(C(F)(F)F)nn1CC(=O)N1CCC(c2nc(C=NOCc3ccc(Cl)cc3)cs2)CC1 [I-26]	4.30		
Cc1cc(C(F)(F)F)nn1CC(=O)N1CCC(c2nc(C=NN(Cc3ccccc3)c3ccccc3)cs2)CC1 [I-12]	4.70		
CC(=NOC1CCCCC1)c1csc(C2CCN(C(=O)Cc3cc(Cl)ccc3Cl)CC2)n1 (mixture of isomers) [I-46]	5.87	6.17	
Cc1cc(C(F)(F)F)nn1CC(=O)N1CCC(c2nc(C=NOC(C)c3ccccc3)cs2)CC1 (mixture of isomers) [I-3]	3.92	4.07	
CC(=NOCc1ccccc1)c1csc(C2CCN(C(=O)Cn3nc(C(F)(F)F)cc3C)CC2)n1 (mixture of isomers) [I-10]	4.07	4.28	
Cc1cc(C(F)(F)F)nn1CC(=O)N1CCC(c2nc(C=NOCc3c(F)cccc3F)cs2)CC1 (mixture of isomers) [I-36]	3.70	3.86	
Cc1cc(C(F)(F)F)nn1CC(=O)N1CCC(c2nc(C=NOCc3ccccc3F)cs2)CC1 (mixture of isomers) [I-9]	3.68	3.84	
Cc1cc(C(F)(F)F)nn1CC(=O)N1CCC(c2nc(C=NOC3CCCCC3)cs2)CC1 (mixture of isomers) [I-33]	4.26	4.48	
Cc1ccccc1CON=Cc1csc(C2CCN(C(=O)Cn3nc(C(F)(F)F)cc3C)CC2)n1 (mixture of isomers) [I-6]	3.96	4.12	
Cc1cc(C(F)(F)F)nn1CC(=O)N1CCC(c2nc(C=NOc3ccccc3Br)cs2)CC1 [I-39]	4.14		
O=C(Cc1cc(Cl)ccc1Cl)N1CCC(c2nc(C=NOc3ccccc3Br)cs2)CC1 [I-40]	4.90		
CCCCCON=C(C)c1csc(C2CCN(C(=O)Cn3nc(C(F)(F)F)cc3C)CC2)n1 [I-20]	4.71		
CC(C)c1cc(C(F)(F)F)n(CC(=O)N2CCC(c3nc(C=NOCc4ccc(Cl)cc4)cs3)CC2)n1 [I-32]	4.56		
O=C(Cn1nc(C(F)(F)F)cc1C(F)(F)F)N1CCC(c2nc(C=NOCc3ccc(Cl)cc3)cs2)CC1 [I-24]	4.56		
O=C(Cn1nc(C(F)F)cc1C(F)F)N1CCC(c2nc(C=NOCc3c(F)cccc3F)cs2)CC1 (mixture of isomers) [I-37]	3.58	3.74	
CC(=NOCCCCc1ccccc1)c1csc(C2CCN(C(=O)Cn3nc(C(F)(F)F)cc3C)CC2)n1 [I-22]	4.97		
O=C(Cc1cc(Cl)ccc1Cl)N1CCC(c2nc(C=NOC3CCCCC3)cs2)CC1 (mixture of isomers) [I-35]	5.10	5.45	
CC(=NOCc1c(F)cccc1F)c1csc(C2CCN(C(=O)Cn3nc(C(F)(F)F)cc3C)CC2)n1 (mixture of isomers) [I-41]	4.11	4.32	
CC(C)(C)c1cc(C(F)(F)F)nn1CC(=O)N1CCC(c2nc(C=NOCc3ccc(Cl)cc3)cs2)CC1 [I-29]	4.75		
Cc1cc(C(F)(F)F)nn1CC(=O)N1CCC(c2nc(C=NOC(C)c3ccc(Cl)cc3)cs2)CC1 (mixture of isomers) [I-8]	4.34	4.50	
Cc1cc(C(F)(F)F)nn1CC(=O)N1CCC(c2nc(C=NOCc3ccccc3Cl)cs2)CC1 [I-18]	4.04		

Source: patent publication US9215875B2 (priority 2008, dated 2015)
